Patent US20170190671A1, “BIS(ARYL)CATECHOL DERIVATIVES AS HERBICIDES” (E I DU PONT DE NEMOURS AND COMPANY, priority 2014, published 2017)

How the values were obtained:
Assay in all cases: Test C preemergence
Assay type in all cases: in vivo
[1] = system: barnyardgrass (Echinochloa crus-galli); settings: Echinochloa crus-galli, pre-emergence, read-out: Plant response rating, Barnyardgrass
In short: (§1)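 Greenhouse test; preemergence on seeded loam-sand soil or spray on 1- to 4-leaf plants; solvent + surfactant vehicle; 13-15 day hold; visual comparison with controls; 0 (no effect)-100 (complete control).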

[2] = system: velvetleaf (Abutilon theophrasti); settings: Abutilon theophrasti, pre-emergence, scale 0 to 100, read-out: Plant response rating, Velvetleaf
In short: as §1

soybean (Glycine max) = settings: Glycine max, pre-emergence, scale 0 to 100, read-out: Plant response rating, Soybean
In short: as §1

[3] = system: ragweed (common ragweed, Ambrosia elatior); settings: Ambrosia artemisiifolia, pre-emergence, 336 h, scale 0 to 100, read-out: Plant response rating, Ragweed
In short: as §1

corn (Zea mays) = settings: Zea mays, pre-emergence, 336 h, scale 0 to 100
In short: as §1

[4] = system: large (Lg) crabgrass (Digitaria sanguinalis); settings: Digitaria sanguinalis, pre-emergence, 336 h, scale 0 to 100, read-out: Plant response rating, Crabgrass, Large
In short: as §1

[5] = system: oilseed rape (Brassica napus); settings: Brassica napus, pre-emergence, scale 0 to 100, read-out: Plant response rating, Oilseed Rape
In short: as §1

[6] = system: morningglory (Ipomoea coccinea); settings: Ipomoea, pre-emergence, 336 h, scale 0 to 100, read-out: Plant response rating, Morningglory
In short: as §1

[7] = system: pigweed (Amaranthus retroflexus); settings: Amaranthus retroflexus, pre-emergence, 336 h, scale 0 to 100, read-out: Plant response rating, Pigweed
In short: as §1

[8] = system: blackgrass (Alopecurus myosuroides); settings: Alopecurus myosuroides, pre-emergence, 336 h, scale 0 to 100, read-out: Plant response rating, Blackgrass
In short: as §1

[9] = system: Italian ryegrass (Lolium multiflorum); settings: Lolium multiflorum, pre-emergence, 336 h, scale 0 to 100, read-out: Plant response rating, Ryegrass, Italian
In short: as §1

N#Cc1cccc(Oc2ncc(Cl)cn2)c1Oc1ncc(C(F)(F)F)cn1 [Compound 38, 3-[(5-chloro-2-pyrimidinyl)oxy]-2-[[5-(trifluoromethyl)-2-pyrimidinyl]oxy]-benzonitrile]
pest or weed control at 62 g/ha ([1]; 62 g ai/ha, preemergence, scale 0 to 100): 100% | pest or weed control at 125 g/ha ([1]; 125 g ai/ha, preemergence, scale 0 to 100): 100% | pest or weed control at 16 g/ha ([1]; Preemergence, 16 g ai/ha, scale 0 to 100 (0 no effect, 100 complete control)): 50% | pest or weed control at 31 g/ha ([2]; 31 g ai/ha, preemergence): 90% | pest or weed control at 62 g/ha ([2]; 62 g ai/ha, preemergence): 98% | pest or weed control at 125 g/ha ([2]; 125 g ai/ha, preemergence): 100% | pest or weed control at 16 g/ha ([2]; Preemergence, 16 g ai/ha): 45% | plant injury at 31 g/ha (soybean (Glycine max); 31 g ai/ha, preemergence): 55% | plant injury at 62 g/ha (soybean (Glycine max); 62 g ai/ha, preemergence): 60% | plant injury at 125 g/ha (soybean (Glycine max); 125 g ai/ha, preemergence): 90% | plant injury at 16 g/ha (soybean (Glycine max); Preemergence, 16 g ai/ha): 20% | pest or weed control at 31 g/ha ([3]; 31 g ai/ha, preemergence): 25% | pest or weed control at 62 g/ha ([3]; 62 g ai/ha, preemergence): 75% | pest or weed control at 125 g/ha ([3]; 125 g ai/ha, preemergence): 90% | pest or weed control at 16 g/ha ([3]; Preemergence, 16 g ai/ha): 0% | Corn plant response rating (crop injury, 0 = no effect, 100 = complete kill) at 31 g/ha (corn (Zea mays); 31 g ai/ha, preemergence): 30% | Corn plant response rating (crop injury, 0 = no effect, 100 = complete kill) at 62 g/ha (corn (Zea mays); 62 g ai/ha, preemergence): 45% | Corn plant response rating (crop injury, 0 = no effect, 100 = complete kill) at 125 g/ha (corn (Zea mays); 125 g ai/ha, preemergence): 65% | Corn plant response rating (crop injury, 0 = no effect, 100 = complete kill) at 16 g/ha (corn (Zea mays); Preemergence, 16 g ai/ha): 10% | pest or weed control at 31 g/ha ([4]; 31 g ai/ha, preemergence): 100% | pest or weed control at 62 g/ha ([4]; 62 g ai/ha, preemergence): 100% | pest or weed control at 125 g/ha ([4]; 125 g ai/ha, preemergence): 100% | pest or weed control at 16 g/ha ([4]; Preemergence, 16 g ai/ha): 100% | plant injury at 31 g/ha ([5]; 31 g ai/ha, preemergence): 100% | plant injury at 62 g/ha ([5]; 62 g ai/ha, preemergence): 100% | plant injury at 125 g/ha ([5]; 125 g ai/ha, preemergence): 100% | plant injury at 16 g/ha ([5]; Preemergence, 16 g ai/ha): 90% | pest or weed control at 31 g/ha ([6]; 31 g ai/ha, preemergence): 80% | pest or weed control at 62 g/ha ([6]; 62 g ai/ha, preemergence): 95% | pest or weed control at 125 g/ha ([6]; 125 g ai/ha, preemergence): 100% | pest or weed control at 16 g/ha ([6]; Preemergence, 16 g ai/ha): 40% | pest or weed control at 31 g/ha ([7]; 31 g ai/ha, preemergence): 100% | pest or weed control at 62 g/ha ([7]; 62 g ai/ha, preemergence): 100% | pest or weed control at 125 g/ha ([7]; 125 g ai/ha, preemergence): 100% | pest or weed control at 16 g/ha ([7]; Preemergence, 16 g ai/ha): 100% | pest or weed control at 31 g/ha ([8]; 31 g ai/ha, preemergence): 35% | pest or weed control at 62 g/ha ([8]; 62 g ai/ha, preemergence): 50% | pest or weed control at 125 g/ha ([8]; 125 g ai/ha, preemergence): 90% | pest or weed control at 16 g/ha ([8]; Preemergence, 16 g ai/ha): 0% | pest or weed control at 31 g/ha ([9]; 31 g ai/ha, preemergence): 10% | pest or weed control at 62 g/ha ([9]; 62 g ai/ha, preemergence): 60% | pest or weed control at 125 g/ha ([9]; 125 g ai/ha, preemergence): 90% | pest or weed control at 16 g/ha ([9]; Preemergence, 16 g ai/ha): 0%
